Target: T1, GSK3β (Homo sapiens, UniProt P49841+Q96SW2)
T1 construct: genetically engineered using CRISPR/Cas9 technology to endogenously tag GSK3p protein with HiBiT tag at the C-terminus; host or cells: HEK293 cells, CRISPR/Cas9 knock-in of HiBiT at the endogenous GSK3B locus
Test: High throughput screening for GSK3β-HiBiT targeted degradation (Nano-Glo HiBiT Lytic luminescence)
Format: cell-based
Settings: HEK293 cells with endogenously HiBiT-tagged GSK3β, 24 h incubation, products of one-pot plate array (FIG. 1, Method A); for DC50: 0.01-30 μM, read-out: DC50 (half-maximal degradation concentration)
Method: High throughput Screening for GSK3 β-HiBiTL: Test compounds were transferred into Echo plate (Beckman, 001-12782, Echo LDV384) using BRAVO automated liquid handling platform which serves as source plate (10 mM stocks in DMSO). Serial dilutions of the compounds were done using Echo550 liquid handler as 30 μM, 10 μM, 3 μM, 1 μM, 0.3 μM, 0.1 μM, 0.03 μM and 0.01 μM in final concentrations in assay plates. One column of each assay plate was reserved for DMSO control treatments. After compounds were serially diluted in assay plates, HEK293 cells (CRL-1573, ATCC) genetically engineered using CRISPR/Cas9 technology to endogenously tag GSK3p protein with HiBiT tag at the C-terminus (Schwinn et al., 2018, CRISPR-mediated tagging of endogenous proteins with a luminescent peptide, ACS Chem. Biol., 13(2), 467-74) were seeded at a density of 5000 cells/well in 50 μL complete media in 384-well TC-grade white plates (Perkin Elmer, Culturplate, 6007619) with the help of Multidrop Combi liquid dispenser and cells were incubated for 24 h with compounds at 37° C. in humidified incubators with 5% CO2. At the end of the treatment, equal volume of Nano-Glo HiBiT Lytic reagent (Promega N3030) supplied with Nano-Glo HiBiT Lytic substrate and LgBiT Protein were added into each well according to manufacturer's instructions, and cells were incubated on an orbital shaker for 15 seconds and for a further 15 minutes at room temperature. Luminescence signals were measured in an appropriate plate reader (PHERAstar FSX, BMG Labtech) (Dixon et al., 2016, NanoLuc complementation reporter optimized for accurate measurement of protein interactions in cells, ACS Chem. Biol., 11, 400-8). Changes in protein abundance upon compound treatment were further analysed by normalising raw luminescence values to DMSO values and fold changes were plotted using for parameter logistic regression with GraphPad Prism (10.1.2).
Furthermore, the present investigators have shown that bifunctional compounds manufactured using the method of the present disclosure may be effective in the uses of bifunctional compounds, for example as PROTACs in targeted protein degradation (TPD). […] GSK3p was targeted for degradation using a binder for GSK3p, and a binder for CRBN; the binders were comprised in molecules comprising moieties for reacting with the orthogonally reactive moieties of the linker. […] The “identifier” identifies the well of the multi-well plate that has been sampled, e.g., AHD2B-1-A1 relates to the top left well in FIG. 1. The DC50 provides an indication of the potency of the bifunctional compound in targeted degradation; Dmax provides an indication of the maximum possible degradation. The use of these metrics is further described in Flexible Fitting of PROTAC Concentration-Response Curves with Changepoint Gaussian Processes, Semenova et al., SLAS Discovery, 2021, 26, 1212-1224.

T1 sequence (P49841 whole entry): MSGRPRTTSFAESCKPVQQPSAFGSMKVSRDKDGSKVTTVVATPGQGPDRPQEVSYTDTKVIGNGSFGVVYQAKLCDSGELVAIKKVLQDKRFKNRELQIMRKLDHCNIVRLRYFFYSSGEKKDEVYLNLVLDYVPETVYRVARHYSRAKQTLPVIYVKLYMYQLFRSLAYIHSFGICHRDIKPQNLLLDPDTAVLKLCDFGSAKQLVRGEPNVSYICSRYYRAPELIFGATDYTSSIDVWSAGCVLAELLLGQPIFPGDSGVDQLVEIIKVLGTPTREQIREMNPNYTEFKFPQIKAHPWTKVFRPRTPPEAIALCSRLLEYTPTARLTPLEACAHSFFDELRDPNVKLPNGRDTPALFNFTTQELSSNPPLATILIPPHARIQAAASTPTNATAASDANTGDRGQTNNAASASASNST
T1 sequence (Q96SW2 whole entry): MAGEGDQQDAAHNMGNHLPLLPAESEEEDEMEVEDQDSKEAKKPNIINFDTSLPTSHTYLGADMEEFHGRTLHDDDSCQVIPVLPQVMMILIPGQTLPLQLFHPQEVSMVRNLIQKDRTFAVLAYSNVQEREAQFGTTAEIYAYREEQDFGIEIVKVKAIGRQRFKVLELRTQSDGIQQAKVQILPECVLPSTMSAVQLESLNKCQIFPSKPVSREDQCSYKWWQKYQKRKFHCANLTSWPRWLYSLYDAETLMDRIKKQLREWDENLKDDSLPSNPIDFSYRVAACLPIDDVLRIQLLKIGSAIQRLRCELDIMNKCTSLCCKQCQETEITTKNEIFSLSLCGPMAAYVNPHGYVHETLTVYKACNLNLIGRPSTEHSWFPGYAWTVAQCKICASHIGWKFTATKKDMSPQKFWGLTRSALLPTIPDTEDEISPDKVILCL
T1 sequence (Q16531 whole entry partner): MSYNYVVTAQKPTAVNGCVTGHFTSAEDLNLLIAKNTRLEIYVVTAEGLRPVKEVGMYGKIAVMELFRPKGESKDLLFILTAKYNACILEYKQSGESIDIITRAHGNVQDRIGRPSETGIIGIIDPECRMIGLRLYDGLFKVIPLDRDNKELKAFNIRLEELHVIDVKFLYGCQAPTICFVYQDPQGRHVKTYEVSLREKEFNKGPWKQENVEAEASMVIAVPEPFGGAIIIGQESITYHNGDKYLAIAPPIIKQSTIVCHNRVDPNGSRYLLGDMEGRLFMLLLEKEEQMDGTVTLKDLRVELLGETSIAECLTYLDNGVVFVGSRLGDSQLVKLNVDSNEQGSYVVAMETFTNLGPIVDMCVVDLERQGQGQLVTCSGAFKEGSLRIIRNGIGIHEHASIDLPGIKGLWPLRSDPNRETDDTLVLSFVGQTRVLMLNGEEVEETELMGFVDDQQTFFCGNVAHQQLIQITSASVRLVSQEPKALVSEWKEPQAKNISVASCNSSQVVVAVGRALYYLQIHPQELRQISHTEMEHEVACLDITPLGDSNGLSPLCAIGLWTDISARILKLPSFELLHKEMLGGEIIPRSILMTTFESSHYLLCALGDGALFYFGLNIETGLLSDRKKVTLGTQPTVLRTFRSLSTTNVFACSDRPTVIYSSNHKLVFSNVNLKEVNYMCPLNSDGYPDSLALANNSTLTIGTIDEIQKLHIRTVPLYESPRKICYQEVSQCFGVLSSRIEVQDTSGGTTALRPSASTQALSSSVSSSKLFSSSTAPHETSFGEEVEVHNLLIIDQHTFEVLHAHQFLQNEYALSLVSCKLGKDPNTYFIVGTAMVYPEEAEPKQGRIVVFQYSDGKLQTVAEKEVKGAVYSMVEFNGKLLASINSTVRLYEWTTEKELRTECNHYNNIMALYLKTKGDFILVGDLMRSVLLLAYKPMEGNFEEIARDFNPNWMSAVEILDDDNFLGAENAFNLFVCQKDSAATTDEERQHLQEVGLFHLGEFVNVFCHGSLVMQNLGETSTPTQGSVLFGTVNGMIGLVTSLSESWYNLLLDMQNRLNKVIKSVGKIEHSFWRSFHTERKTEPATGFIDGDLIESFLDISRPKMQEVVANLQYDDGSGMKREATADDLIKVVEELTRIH

Row | SMILES | DC50 [µM] | Dmax (maximal effect) [%]
1 | COc1ccc(-c2ocnc2C(=O)NCCCn2cc(CCCCN3CCN(Cc4cccc(N5CCC(=O)NC5=O)c4)CC3)nn2)cc1Cl [AHD2B-1-A1] | > 10 | <30
2 | COc1ccc(-c2ocnc2C(=O)NCCCn2cc(-c3ccc(CN4CCN(Cc5cccc(N6CCC(=O)NC6=O)c5)CC4)cn3)nn2)cc1Cl [AHD2B-1-A2] | > 10 | <30
3 | COc1ccc(-c2ocnc2C(=O)NCCCn2cc(COc3ccc(CN4CCN(Cc5cccc(N6CCC(=O)NC6=O)c5)CC4)cc3)nn2)cc1Cl [AHD2B-1-A3] | > 10 | <30
4 | COc1ccc(-c2ocnc2C(=O)NCCCn2cc(CCCOc3ccc(CN4CCN(Cc5cccc(N6CCC(=O)NC6=O)c5)CC4)cc3)nn2)cc1Cl [AHD2B-1-A4] | > 10 | <30
5 | COc1ccc(-c2ocnc2C(=O)NCCCn2cc(COC3CCN(Cc4cccc(N5CCC(=O)NC5=O)c4)CC3)nn2)cc1Cl [AHD2B-1-A5] | > 10 | <30
6 | COc1ccc(-c2ocnc2C(=O)NCCCn2cc(COc3ccc(CN4CCC5(C4)CN(Cc4cccc(N6CCC(=O)NC6=O)c4)C5)cc3)nn2)cc1Cl [AHD2B-1-A6] | > 10 | <30
7 | COc1ccc(-c2ocnc2C(=O)NCCCn2cc(CCCCCN3CCN(Cc4cccc(N5CCC(=O)NC5=O)c4)CC3)nn2)cc1Cl [AHD2B-1-A7] | > 10 | <30
8 | COc1ccc(-c2ocnc2C(=O)NCCCn2cc(-c3cccc(CN4CCN(Cc5cccc(N6CCC(=O)NC6=O)c5)CC4)n3)nn2)cc1Cl [AHD2B-1-A8] | > 10 | <30
9 | COc1ccc(-c2ocnc2C(=O)NCCCn2cc(CCCCCN3CCCN(Cc4cccc(N5CCC(=O)NC5=O)c4)CC3)nn2)cc1Cl [AHD2B-1-A9] | > 10 | <30
10 | COc1ccc(-c2ocnc2C(=O)NCCCn2cc(COCCOCCN3CCN(Cc4cccc(N5CCC(=O)NC5=O)c4)CC3)nn2)cc1Cl [AHD2B-1-A10] | > 10 | <30
11 | COc1ccc(-c2ocnc2C(=O)NCCCn2cc(COc3ccc(CN4CC5(C4)CN(Cc4cccc(N6CCC(=O)NC6=O)c4)C5)cc3)nn2)cc1Cl [AHD2B-1-A11] | > 10 | <30
12 | COc1ccc(-c2ocnc2C(=O)NCCCn2cc(CCCCN3CCN(CC(=O)N[C@H](C(=O)N4C[C@H](O)C[C@H]4C(=O)NCc4ccc(-c5scnc5C)cc4)C(C)(C)C)CC3)nn2)cc1Cl [AHD2B-1-B1] | > 10 | <30
13 | COc1ccc(-c2ocnc2C(=O)NCCCn2cc(-c3ccc(CN4CCN(CC(=O)N[C@H](C(=O)N5C[C@H](O)C[C@H]5C(=O)NCc5ccc(-c6scnc6C)cc5)C(C)(C)C)CC4)cn3)nn2)cc1Cl [AHD2B-1-B2] | > 10 | <30
14 | COc1ccc(-c2ocnc2C(=O)NCCCn2cc(COc3ccc(CN4CCN(CC(=O)N[C@H](C(=O)N5C[C@H](O)C[C@H]5C(=O)NCc5ccc(-c6scnc6C)cc5)C(C)(C)C)CC4)cc3)nn2)cc1Cl [AHD2B-1-B3] | > 10 | <30
15 | COc1ccc(-c2ocnc2C(=O)NCCCn2cc(CCCOc3ccc(CN4CCN(CC(=O)N[C@H](C(=O)N5C[C@H](O)C[C@H]5C(=O)NCc5ccc(-c6scnc6C)cc5)C(C)(C)C)CC4)cc3)nn2)cc1Cl [AHD2B-1-B4] | > 10 | <30
16 | COc1ccc(-c2ocnc2C(=O)NCCCn2cc(COC3CCN(CC(=O)N[C@H](C(=O)N4C[C@H](O)C[C@H]4C(=O)NCc4ccc(-c5scnc5C)cc4)C(C)(C)C)CC3)nn2)cc1Cl [AHD2B-1-B5] | > 10 | <30
17 | COc1ccc(-c2ocnc2C(=O)NCCCn2cc(COc3ccc(CN4CCC5(C4)CN(CC(=O)N[C@H](C(=O)N4C[C@H](O)C[C@H]4C(=O)NCc4ccc(-c6scnc6C)cc4)C(C)(C)C)C5)cc3)nn2)cc1Cl [AHD2B-1-B6] | > 10 | <30
18 | COc1ccc(-c2ocnc2C(=O)NCCCn2cc(-c3cccc(CN4CCN(CC(=O)N[C@H](C(=O)N5C[C@H](O)C[C@H]5C(=O)NCc5ccc(-c6scnc6C)cc5)C(C)(C)C)CC4)n3)nn2)cc1Cl [AHD2B-1-B8] | > 10 | <30
19 | COc1ccc(-c2ocnc2C(=O)NCCCn2cc(CCCCCN3CCCN(CC(=O)N[C@H](C(=O)N4C[C@H](O)C[C@H]4C(=O)NCc4ccc(-c5scnc5C)cc4)C(C)(C)C)CC3)nn2)cc1Cl [AHD2B-1-B9] | > 10 | <30
20 | COc1ccc(-c2ocnc2C(=O)NCCCn2cc(COCCOCCN3CCN(CC(=O)N[C@H](C(=O)N4C[C@H](O)C[C@H]4C(=O)NCc4ccc(-c5scnc5C)cc4)C(C)(C)C)CC3)nn2)cc1Cl [AHD2B-1-B10] | > 10 | <30

Other lines, results leading:

Row | DC50 [µM] | Dmax (maximal effect) [%] | SMILES
21 | > 10 | <30 | COc1ccc(-c2ocnc2C(=O)NCCCn2cc(COc3ccc(CN4CC5(CN(CC(=O)N[C@H](C(=O)N6C[C@H](O)C[C@H]6C(=O)NCc6ccc(-c7scnc7C)cc6)C(C)(C)C)C5)C4)cc3)nn2)cc1Cl [AHD2B-1-B11]
22 | > 10 | <30 | COc1ccc(-c2ocnc2C(=O)NCCCn2cc(CCCN3CCN(CC(=O)N[C@H](C(=O)N4C[C@H](O)C[C@H]4C(=O)NCc4ccc(-c5scnc5C)cc4)C(C)(C)C)CC3)nn2)cc1Cl [AHD2B-1-B12]
23 | < 0.25 | 53 | COc1ccc(-c2ocnc2C(=O)NCCCn2cc(CCCOc3ccc(CN4CCN(Cc5ccc(C(=O)NC6CCC(=O)NC6=O)c(F)c5)CC4)cc3)nn2)cc1Cl (centres unmarked) [AHD2B-1-C4]
24 | 1.6 | 59 | COc1ccc(-c2ocnc2C(=O)NCCCn2cc(COc3ccc(CN4CCC5(C4)CN(Cc4ccc(C(=O)NC6CCC(=O)NC6=O)c(F)c4)C5)cc3)nn2)cc1Cl (centres unmarked) [AHD2B-1-C6]
25 | > 10 | <30 | COc1ccc(-c2ocnc2C(=O)NCCCn2cc(-c3cccc(CN4CCN(Cc5ccc(C(=O)NC6CCC(=O)NC6=O)c(F)c5)CC4)n3)nn2)cc1Cl (centres unmarked) [AHD2B-1-C8]
26 | 7.1 | 39 | COc1ccc(-c2ocnc2C(=O)NCCCn2cc(CCCCCN3CCCN(Cc4ccc(C(=O)NC5CCC(=O)NC5=O)c(F)c4)CC3)nn2)cc1Cl (centres unmarked) [AHD2B-1-C9]
27 | > 10 | <30 | COc1ccc(-c2ocnc2C(=O)NCCCn2cc(COCCOCCN3CCN(Cc4ccc(C(=O)NC5CCC(=O)NC5=O)c(F)c4)CC3)nn2)cc1Cl (centres unmarked) [AHD2B-1-C10]
28 | 1.9 | 56 | COc1ccc(-c2ocnc2C(=O)NCCCn2cc(COc3ccc(CN4CC5(C4)CN(Cc4ccc(C(=O)NC6CCC(=O)NC6=O)c(F)c4)C5)cc3)nn2)cc1Cl (centres unmarked) [AHD2B-1-C11]
29 | > 10 | <30 | COc1ccc(-c2ocnc2C(=O)NCCCn2cc(CCCN3CCN(Cc4ccc(C(=O)NC5CCC(=O)NC5=O)c(F)c4)CC3)nn2)cc1Cl (centres unmarked) [AHD2B-1-C12]
30 | 2.1 | 49 | COc1ccc(-c2ocnc2C(=O)NCCCn2cc(CCCCN3CCN(Cc4ccc5c(N6CCC(=O)NC6=O)nn(C)c5c4)CC3)nn2)cc1Cl [AHD2B-1-D1]
31 | < 0.25 | 63 | COc1ccc(-c2ocnc2C(=O)NCCCn2cc(-c3ccc(CN4CCN(Cc5ccc6c(N7CCC(=O)NC7=O)nn(C)c6c5)CC4)cn3)nn2)cc1Cl [AHD2B-1-D2]
32 | < 0.25 | 41 | COc1ccc(-c2ocnc2C(=O)NCCCn2cc(CCCOc3ccc(CN4CCN(Cc5ccc6c(N7CCC(=O)NC7=O)nn(C)c6c5)CC4)cc3)nn2)cc1Cl [AHD2B-1-D4]
33 | 0.55 | 35 | COc1ccc(-c2ocnc2C(=O)NCCCn2cc(COC3CCN(Cc4ccc5c(N6CCC(=O)NC6=O)nn(C)c5c4)CC3)nn2)cc1Cl [AHD2B-1-D5]
34 | > 10 | <30 | COc1ccc(-c2ocnc2C(=O)NCCCn2cc(CCCCN3CCN(Cc4ccc(C(=O)NC5CCC(=O)NC5=O)nc4)CC3)nn2)cc1Cl (centres unmarked) [AHD2B-1-F1]

From patent US20250354195A1, “METHOD OF SCREENING” (UNIVERSITY OF DUNDEE, priority 2024, published 2025)
